SMILES strings stand for the structures.

The experiment concerns the target T1, human CCR10 (Homo sapiens, UniProt P46092).
T1 construct: expressed in transfected cells; host or cells: KJMGER8 cell (cell line derived from Namalwa cell); expression induced with 10 nmol/L β-estradiol
T1 sequence (P46092 1-362): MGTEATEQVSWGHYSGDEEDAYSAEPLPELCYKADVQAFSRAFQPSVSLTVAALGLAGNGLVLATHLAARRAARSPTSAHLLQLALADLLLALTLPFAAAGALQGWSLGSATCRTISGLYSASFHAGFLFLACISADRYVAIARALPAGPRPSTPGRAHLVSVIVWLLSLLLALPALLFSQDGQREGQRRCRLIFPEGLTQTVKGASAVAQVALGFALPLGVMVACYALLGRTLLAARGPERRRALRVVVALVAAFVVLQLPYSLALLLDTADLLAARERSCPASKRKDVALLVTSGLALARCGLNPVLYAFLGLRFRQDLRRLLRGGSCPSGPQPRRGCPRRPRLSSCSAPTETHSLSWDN
As to the kind of experiment: Calcium assay of human CCR10 (inhibition of CTACK-induced increase in intracellular calcium ion concentration in hCCR10G16 cells). Conditions: test compound 100 nmol/L; human recombinant CTACK; hCCR10G16 cells (KJMGER8/Namalwa-derived, Gα16 co-expressed); FLIPR or FDSS; read-out: Inhibitory rate (%) for an increase in calcium ion concentration. It is filed as cell-based. The method, then: A CCR10-inducible expression plasmid was produced according to a known method (“Analytical Biochemistry”, 2006, vol. 400, page 163). A DNA encoding human CCR10 was obtained by PCR. Using human chromosomal DNA (100 ng; manufactured by Clontech Laboratories, Inc.) as a template, a synthetic DNA having the sequences shown by SEQ ID NOs: 1 and 2 as a human CCR10 cDNA specific primer, and Pyrobest DNA Polymerase (manufactured by TAKARA SHUZO CO. LTD.) as an enzyme, a DNA encoding human CCR10 was obtained by PCR. As a buffer solution for PCR, the buffer solution attached to the enzyme was diluted 10-fold with deionized water and used. Using Thermal Cycler DNA Engine (manufactured by MJ Research), PCR was performed by 35 cycles of reactions composed of an incubation at 90° C. for 2 min, at 94° C. for 30 seconds, at an anneal temperature of 58° C. for 30 seconds, and at 72° C. for 1 min.
The amplified PCR fragment was cleaved with HindIII and NotI, then a human CCR10 DNA fragment was recovered by an agarose gel electrophoresis method. The fragment was incorporated in between the corresponding restriction enzyme sites (HindIII-NotI) of an inducible expression vector, whereby a human CCR10-inducible expression plasmid were prepared.
Using a primer specific to the sequence of the plasmid (synthetic DNA having the sequences shown by SEQ ID NOs: 3 and 4), the sequence of human CCR10 DNA region was determined. For the determination of the base sequence, DNA sequencer 377 (manufactured by PerkinElmer) and a reaction kit (ABI Prism (registered trade mark) BigDye (registered trade mark) Terminator Cycle Sequencing Ready Reaction kit: manufactured by Applied Biosystems) were used. The sequence of human CCR10 DNA matched with the sequence (NM_016602) registered in GenBank.
Cells for the detection of the signal from human CCR10 by a calcium assay were prepared. Human CCR10-inducible expressing cells whose host cell is KJMGER8 cell (cell line derived from Namalwa cell) were prepared according to a known method (“Analy Biochem”, 2006, vol. 400, page 163). Human CCR10-inducible expression plasmid produced above and Gα16 expression plasmid were co-transfected into KJMGER8 cell by an electroporation method (“Cytotechnology”, 1990, vol. 3, page 133), whereby a signal from human CCR10 could be detected by a calcium assay (hereinafter to be referred to as hCCR10G16 cell). Gα16 expression plasmid was produced by incorporating human Gα16 DNA into expression vector pAMoh (WO03/087366). Induced expression of human CCR10 was performed by cultivating hCCR10G16 cells in the presence of 10 nmol/L β-estradiol (manufactured by Sigma Ltd.) for 24 hr.
Cells expressing human CCR10 induced by the above-mentioned method were suspended in RPMI1640 medium and adjusted to cell density of 1.25×10^6 cells/mL. This mixture was dispensed to a 384 well clear bottom plate (manufactured by Corning Incorporated) at 20 μL/well, and these were incubated at 37° C. for several dozen minutes. A loading buffer prepared according to the protocol attached to FLIPR Calcium 3 assay kit (manufactured by Molecular Device) was dispensed to this plate at 20 μL/well, and the plate was incubated at 37° C. for 60 min. A 33 μmol/L DMSO solution of the test compound was diluted 37-fold with RPMI1640 medium and the resulting solution was added at 5 μL/well, and the mixture was incubated at 37° C. for 30 min. 300 nmol/L human recombinant CTACK (manufactured by R and D Systems) diluted with RPMI1640 medium containing 1 w/v % bovine serum albumin was added at 5 μL/well. Change of the intracellular calcium ion concentration for about 5 min after the addition was measured by FLIPR (manufactured by Molecular Device) or FDSS (manufactured by Hamamatsu Photonics K.K.). The difference between the maximum fluorescence intensity and the minimum fluorescence intensity for 5 min was calculated, and taken as the measurement value (maximum fluorescence intensity−minimum fluorescence intensity). […]
Background: Calcium assays in cells follow changes in intracellular calcium, usually with a dye or a luminescent sensor.

On to `CCC(=O)NS(=O)(=O)c1cnn2c(Nc3ccc(C)cc3F)c(C(=O)N3CCC4(CC3)OCc3ccccc34)cnc12` [a-48, N-{7-(2-Fluoro-4-methylphenylamino)-6-[3H-spiro(isobenzofuran-1,4′-piperidine)-1′-carbonyl]pyrazolo[1,5-a]pyrimidin-3-ylsulfonyl}propionamide], for which the inhibition at 0.1 µM was above 100%. In the case of `Cc1ccc(F)c(Nc2c(C(=O)N3CCC(c4ccc(F)cc4)CC3)cnc3c(S(=O)(=O)NC(=O)NC4CC4)cnn23)c1` [a-32, 7-(2-Fluoro-5-methylphenylamino)-N-(cyclopropylcarbamoyl)-6-[4-(4-fluorophenyl)piperidine-1-carbonyl]pyrazolo[1,5-a]pyrimidine-3-sulfonamide], the inhibition at 0.1 µM was above 100%. Take `CONS(=O)(=O)c1cnn2c(Nc3cc(Cl)ccc3Cl)c(C(=O)N3CCC(c4ccc(F)cc4)CC3)cnc12` [a-27, 7-(2,5-Dichlorophenylamino)-6-[4-(4-fluorophenyl)piperidine-1-carbonyl]-N-methoxypyrazolo[1,5-a]pyrimidine-3-sulfonamide]: the inhibition at 0.1 µM is above 100%. Consider `CCC(=O)NS(=O)(=O)c1cnn2c(Nc3cc(C)ccc3F)c(C(=O)N3CCC4(CC3)OCc3ccccc34)cnc12` [a-51, N-{7-(2-Fluoro-5-methylphenylamino)-6-[3H-spiro(isobenzofuran-1,4′-piperidine)-1′-carbonyl]pyrazolo[1,5-a]pyrimidin-3-ylsulfonyl}propionamide], for which the inhibition at 0.1 µM is above 100%.

For `CCNC(=O)NS(=O)(=O)c1cnn2c(Nc3ccc(Cl)c(Cl)c3)c(C(=O)N3CCC(c4ccc(F)cc4)CC3)cnc12` [a-39, 7-(3,4-Dichlorophenylamino)-N-(ethylcarbamoyl)-6-[4-(4-fluorophenyl)piperidine-1-carbonyl]pyrazolo[1,5-a]pyrimidine-3-sulfonamide], the inhibition at 0.1 µM is above 100%. Turning to `CCNC(=S)NS(=O)(=O)c1cnn2c(Nc3ccc(F)cc3C)c(C(=O)N3CCC(c4ccccc4)CC3)cnc12` [a-69, N-Ethylcarbamothioyl-7-(4-fluoro-2-methylphenylamino)-6-(4-phenylpiperidine-1-carbonyl)pyrazolo[1,5-a]pyrimidine-3-sulfonamide], the inhibition at 0.1 µM worked out at 81.8%. For the compound `O=CNS(=O)(=O)c1cnn2c(Nc3cc(Cl)ccc3Cl)c(C(=O)N3CCC(c4ccc(F)cc4)CC3)cnc12` [a-26, N-{7-(2,5-Dichlorophenylamino)-6-[4-(4-fluorophenyl)piperidine-1-carbonyl]pyrazolo[1,5-a]pyrimidin-3-ylsulfonyl}formamide], the inhibition at 0.1 µM is above 100%. As to `COC(=O)NS(=O)(=O)c1cnn2c(Nc3ccc(F)cc3C)c(C(=O)N3CCC(c4ccccc4)CC3)cnc12` [a-72, Methyl 7-(4-fluoro-2-methylphenylamino)-6-(4-phenylpiperidine-1-carbonyl)pyrazolo[1,5-a]pyrimidin-3-ylsulfonylcarbamate], the inhibition at 0.1 µM came to 90.7%. Consider `COC(=O)NS(=O)(=O)c1cnn2c(Nc3ccccc3Cl)c(C(=O)N3CCC(c4ccccc4)CC3)cnc12` [a-8, Methyl 7-(2-chlorophenylamino)-6-(4-phenylpiperidine-1-carbonyl)pyrazolo[1,5-a]pyrimidin-3-ylsulfonylcarbamate], for which the inhibition at 0.1 µM is 99.6%. Take `CCC(=O)NS(=O)(=O)c1cnn2c(Nc3cc(Cl)ccc3Cl)c(C(=O)N3CCC4(CC3)OCc3ccccc34)cnc12` [a-53, N-{7-(2,5-Dichlorophenylamino)-6-[3H-spiro(isobenzofuran-1,4′-piperidine)-1′-carbonyl]pyrazolo[1,5-a]pyrimidin-3-ylsulfonyl}propionamide]: the inhibition at 0.1 µM was above 100%. Turning to `Cc1cc(F)ccc1Nc1c(C(=O)N2CCC(c3ccccc3)CC2)cnc2c(S(=O)(=O)NS(C)(=O)=O)cnn12` [a-71, 7-(4-Fluoro-2-methylphenylamino)-N-methylsulfonyl-6-(4-phenylpiperidine-1-carbonyl)pyrazolo[1,5-a]pyrimidine-3-sulfonamide], the inhibition at 0.1 µM amounted to 88.8%.

As to `CC(=O)NS(=O)(=O)c1cnn2c(Nc3cccc(Cl)c3Cl)c(C(=O)N3CCC(c4ccc(F)cc4)CC3)cnc12` [a-38, N-{7-(2,3-Dichlorophenylamino)-6-[4-(4-fluorophenyl)piperidine-1-carbonyl]pyrazolo[1,5-a]pyrimidin-3-ylsulfonyl}acetamide], the inhibition at 0.1 µM is above 100%. With `Cc1cc(F)ccc1Nc1c(C(=O)N2CCC(c3ccccc3)CC2)cnc2c(S(=O)(=O)NC(=O)Nc3ccccc3)cnn12` [a-67, 7-(4-Fluoro-2-methylphenylamino)-N-phenylcarbamoyl-6-(4-phenylpiperidine-1-carbonyl)pyrazolo[1,5-a]pyrimidine-3-sulfonamide] the figure was 63.7%. In the case of `O=C(NS(=O)(=O)c1cnn2c(NCc3ccccc3)c(C(=O)N3CCC(c4ccccc4)CC3)cnc12)C1CC1` [a-75, N-[7-Benzylamino-6-(4-phenylpiperidine-1-carbonyl)pyrazolo[1,5-a]pyrimidin-3-ylsulfonyl]cyclopropanecarboxamide], the inhibition at 0.1 µM was found to be 89.4%. As for `Cc1ccc(Cl)c(Nc2c(C(=O)N3CCC(c4ccc(F)cc4)CC3)cnc3c(S(=O)(=O)NC(=O)NC4CC4(F)F)cnn23)c1` (stereo not drawn) [a-37, 7-(2-Chloro-5-methylphenylamino)-N-(2,2-difluorocyclopropylcarbamoyl)-6-[4-(4-fluorophenyl)piperidine-1-carbonyl]pyrazolo[1,5-a]pyrimidine-3-sulfonamide], the inhibition at 0.1 µM was above 100%. As to `O=C(NS(=O)(=O)c1cnn2c(Nc3ccccc3Cl)c(C(=O)N3CCC(c4ccccc4)CC3)cnc12)C1CC1` [a-6, N-[7-(2-Chlorophenylamino)-6-(4-phenylpiperidine-1-carbonyl)pyrazolo[1,5-a]pyrimidin-3-ylsulfonyl]cyclopropanecarboxamide], the inhibition at 0.1 µM stood at 98.9%. The figure for `CCNC(=O)NS(=O)(=O)c1cnn2c(Nc3ccc(Cl)cc3C)c(C(=O)N3CCC4(CC3)OCc3ccccc34)cnc12` [a-47, 7-(4-Chloro-2-methylphenylamino)-N-(ethylcarbamoyl)-6-[3H-spiro(isobenzofuran-1,4′-piperidine)-1′-carbonyl]pyrazolo[1,5-a]pyrimidine-3-sulfonamide] is above 100%; for `CNCC(=O)NS(=O)(=O)c1cnn2c(Nc3ccc(F)cc3C)c(C(=O)N3CCC(c4ccccc4)CC3)cnc12` [a-63, N-[7-(4-Fluoro-2-methylphenylamino)-6-(4-phenylpiperidine-1-carbonyl)pyrazolo[1,5-a]pyrimidin-3-ylsulfonyl]-2-methylaminoacetamide] it is 58.8%.

The values are drawn from patent US20140221340A1 (KYOWA HAKKO KIRIN CO., LTD., priority 2011, published 2014).
